US10233173B2, “Substituted 1,2,3-triazoles as NR2B-selective NMDA modulators” (JANSSEN PHARMACEUTICA NV, priority 2016, dated 2019)

Molecular target: human GluN1/GluN2B NMDA receptors (Homo sapiens, UniProt Q05586+Q13224)
Assay: Cell-based calcium flux (FLIPR) assay on cloned human NR1/NR2B ion channels expressed in mammalian cells
Details: standard assay
Outline: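 Calcium influx followed by FLIPR fluorescence after 5 min compound exposure and a further 5 min co-agonist challenge: 10 μM glycine with glutamate at ~EC80 (standard) or EC40 (HTS).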

[1] = glutamate at ~EC80, FLIPR calcium flux
[2] = human GluN1/GluN2B, calcium flux (FLIPR), glutamate ~EC80

human GluN1/GluN2B NMDA receptors, sequence (Q13224 27-1484, other chains not shown): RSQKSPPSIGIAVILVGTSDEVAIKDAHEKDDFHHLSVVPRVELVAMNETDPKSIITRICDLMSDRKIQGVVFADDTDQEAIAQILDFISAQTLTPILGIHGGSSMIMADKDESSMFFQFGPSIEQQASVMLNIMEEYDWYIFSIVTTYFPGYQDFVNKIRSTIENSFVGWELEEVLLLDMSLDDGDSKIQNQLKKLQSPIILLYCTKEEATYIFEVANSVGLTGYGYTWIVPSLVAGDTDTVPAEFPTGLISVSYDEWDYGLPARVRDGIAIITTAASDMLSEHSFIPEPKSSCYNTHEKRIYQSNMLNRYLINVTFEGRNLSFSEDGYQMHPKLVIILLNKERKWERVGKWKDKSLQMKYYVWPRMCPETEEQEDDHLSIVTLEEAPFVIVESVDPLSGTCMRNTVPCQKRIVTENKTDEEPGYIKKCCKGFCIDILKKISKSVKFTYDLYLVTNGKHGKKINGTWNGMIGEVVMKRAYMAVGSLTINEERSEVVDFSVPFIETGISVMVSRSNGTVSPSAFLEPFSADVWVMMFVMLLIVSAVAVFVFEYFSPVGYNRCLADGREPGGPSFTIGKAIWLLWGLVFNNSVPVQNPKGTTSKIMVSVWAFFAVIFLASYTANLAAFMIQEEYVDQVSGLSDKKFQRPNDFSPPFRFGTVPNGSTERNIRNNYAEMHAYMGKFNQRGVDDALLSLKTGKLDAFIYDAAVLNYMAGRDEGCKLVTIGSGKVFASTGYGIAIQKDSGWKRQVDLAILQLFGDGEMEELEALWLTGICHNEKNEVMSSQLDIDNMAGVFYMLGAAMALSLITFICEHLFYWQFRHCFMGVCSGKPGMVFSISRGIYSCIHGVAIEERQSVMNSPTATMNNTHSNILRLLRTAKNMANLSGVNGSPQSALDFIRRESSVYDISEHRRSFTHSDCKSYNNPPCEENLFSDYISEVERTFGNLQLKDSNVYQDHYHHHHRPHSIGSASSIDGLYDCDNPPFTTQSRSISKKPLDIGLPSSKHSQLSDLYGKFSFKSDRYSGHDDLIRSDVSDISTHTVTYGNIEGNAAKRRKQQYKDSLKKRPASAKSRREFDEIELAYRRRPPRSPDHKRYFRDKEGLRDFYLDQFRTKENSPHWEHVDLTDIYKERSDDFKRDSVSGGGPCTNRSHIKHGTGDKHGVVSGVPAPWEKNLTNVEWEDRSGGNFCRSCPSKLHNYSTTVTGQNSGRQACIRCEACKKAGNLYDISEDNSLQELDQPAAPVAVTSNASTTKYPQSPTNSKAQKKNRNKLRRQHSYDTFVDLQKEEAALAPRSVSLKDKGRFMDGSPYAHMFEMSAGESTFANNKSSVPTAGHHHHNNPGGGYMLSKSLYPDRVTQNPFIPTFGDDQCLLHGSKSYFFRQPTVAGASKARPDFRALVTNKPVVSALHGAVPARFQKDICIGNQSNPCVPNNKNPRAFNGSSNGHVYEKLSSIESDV

Row | Structure (SMILES) | IC50 [1] [µM] | IC50 [2] [µM]
1 | CNc1nc(OCc2cn(-c3ccc(F)c(C(C)(F)F)c3)nn2)ncc1F [Example 578, 2-[[1-[3-(1,1-Difluoroethyl)-4-fluoro-phenyl]triazol-4-yl]methoxy]-5-fluoro-N-methyl-pyrimidin-4-amine] | 0.14 | –
2 | Cc1cc(-n2cc(COc3nccc(N)n3)nn2)ccc1F [Example 472, 2-[[1-(4-Fluoro-3-methyl-phenyl)triazol-4-yl]methoxy]pyrimidin-4-amine] | 0.149 | –
3 | Cc1ccc(OCc2cn(-c3ccc(F)c(C(C)(F)F)c3)nn2)nc1C [Example 560, 6-[[1-[3-(1,1-Difluoroethyl)-4-fluoro-phenyl]triazol-4-yl]methoxy]-2,3-dimethyl-pyridine] | 0.052 | –
4 | CC(F)(F)c1ccnc(OCc2cn(-c3ccc(F)c(C(F)F)c3)nn2)n1 [Example 696, 4(1,1-Difluoroethyl)-2-((1-(3-(difluoromethyl)-4-fluorophenyl)-1H-1,2,3-triazol-4-yl)methoxy)pyrimidine] | 0.958 | –
5 | CCc1cnc(OCc2cn(-c3ccc(Cl)c(C(F)F)c3)nn2)nc1 [Example 32, 2-[[1-[4-Chloro-3-(difluoromethyl)phenyl]triazol-4-yl]methoxy]-5-ethyl-pyrimidine] | – | 0.002
6 | Cc1cccc(-n2cc(COc3nccc(C)n3)nn2)c1 [Example 244, 4-Methyl-2-[[1-(m-tolyl)triazol-4-yl]methoxy]pyrimidine] | – | 0.191
7 | CCc1cc(-n2cc(COc3ncc(C(C)(C)O)cn3)nn2)ccc1F [Example 182, 2-[2-[[1-(3-Ethyl-4-fluoro-phenyl)triazol-4-yl]methoxy]pyrimidin-5-yl]propan-2-ol] | – | 0.027
8 | Fc1cnc(OCc2cn(-c3ccc(F)c(Br)c3)nn2)nc1 [Example 19, 2-[[1-(3-Bromo-4-fluoro-phenyl)triazol-4-yl]methoxy]-5-fluoropyrimidine] | – | 0.056
9 | Cc1cnc(OCc2cn(-c3ccc(Cl)c(C(F)F)c3)nn2)nc1 [Example 31, 2-[[1-[4-Chloro-3-(difluoromethyl)phenyl]triazol-4-yl]methoxy]-5-methyl-pyrimidine] | – | 0.001
10 | CCc1cnc(OCc2cn(-c3ccc(Cl)c(OC(F)F)c3)nn2)nc1 [Example 27, 2-[[1-[4-Chloro-3-(difluoromethoxy)phenyl]triazol-4-yl]methoxy]-5-ethyl-pyrimidine] | – | 0.009
11 | Cc1cc(C)cc(-n2cc(COc3ncc(Cl)cn3)nn2)c1 [Example 363, 5-Chloro-2-[[1-(3,5-dimethylphenyl)triazol-4-yl]methoxy]pyrimidine] | – | 0.118
12 | CCc1cnc(OCc2cn(-c3ccc(F)c(Cl)c3)nn2)nc1 [Example 621, 2-[[1-(3-Chloro-4-fluoro-phenyl)triazol-4-yl]methoxy]-5-ethyl-pyrimidine] | 0.003 | –
13 | Cc1cnc(NCc2cn(-c3ccc(F)c(C(F)F)c3)nn2)nc1 [Example 211, N-[[1-[3-(Difluoromethyl)-4-fluoro-phenyl]triazol-4-yl]methyl]-5-methyl-pyrimidin-2-amine] | – | 0.049
14 | FC(F)Oc1cc(-n2cc(CNc3ncccn3)nn2)ccc1Cl [Example 98, N-[[1-[4-Chloro-3-(difluoromethoxy)phenyl]triazol-4-yl]methyl]pyrimidin-2-amine] | – | 0.331
15 | COc1cnc(OCc2cn(-c3cccc(C)c3)nn2)nc1 [Example 248, 5-Methoxy-2-[[1-(m-tolyl)triazol-4-yl]methoxy]pyrimidine] | – | 0.009
16 | Cc1c(COc2ncc(Cl)cn2)nnn1-c1cccc(C(F)F)c1 [Example 529, 5-Chloro-2-[[1-[3-(difluoromethyl)phenyl]-5-methyl-triazol-4-yl]methoxy]pyrimidine] | 1.32 | –
17 | CC(F)(F)c1cc(-n2cc(COc3nccc(N4CCCC4)n3)nn2)ccc1F [Example 591, 2-[[1-[3-(1,1-Difluoroethyl)-4-fluoro-phenyl]triazol-4-yl]methoxy]-4-pyrrolidin-1-yl-pyrimidine] | 0.016 | –
18 | Cc1cnc(NCc2cn(-c3ccc(F)c(C(C)(F)F)c3)nn2)nc1 [Example 206, N-[[1-[3-(1,1-Difluoroethyl)-4-fluoro-phenyl]triazol-4-yl]methyl]-5-methyl-pyrimidin-2-amine] | – | 0.219
19 | CC(C)c1cnc(OCc2cn(-c3ccc(F)c(Br)c3)nn2)nc1 [Example 43, 2-[[1-(3-Bromo-4-fluoro-phenyl)triazol-4-yl]methoxy]-5-isopropylpyrimidine] | – | 0.005
20 | Cc1ccnc(OCc2cn(-c3ccc(Cl)c(C(F)F)c3)nn2)n1 [Example 30, 2-[[1-[4-Chloro-3-(difluoromethyl)phenyl]triazol-4-yl]methoxy]-4-methyl-pyrimidine] | – | 0.004
21 | FC(F)c1cccc(-n2cc(COc3ncc(C(F)(F)F)cn3)nn2)c1 [Example 275, 2-[[1-[3-(Difluoromethyl)phenyl]triazol-4-yl]methoxy]-5-(trifluoromethyl)pyrimidine] | – | 0.025

Row | Structure (SMILES) | IC50 [1] [µM] | IC50 [2] [µM]
22 | Cc1nccn1-c1ccnc(OCc2cn(-c3ccc(F)c(C(F)F)c3)nn2)n1 [Example 692, 2-((1-(3-(Difluoromethyl)-4-fluorophenyl)-1H-1,2,3-triazol-4-yl)methoxy)-4-(2-methyl-1H-imidazol-1-yl)pyrimidine] | 1.58 | –
23 | FC(F)Oc1cc(-n2cc(COc3ncc(C(F)F)cn3)nn2)ccc1Cl [Example 96, 2-[[1-[4-Chloro-3-(difluoromethoxy)phenyl]triazol-4-yl]methoxy]-5-(difluoromethyl)pyrimidine] | – | 0.008
24 | Fc1cnc(OCc2cn(-c3ccc(F)c(F)c3)nn2)nc1 [Example 598, 2-[[1-(3,4-Difluorophenyl)triazol-4-yl]methoxy]-5-fluoro-pyrimidine] | 1.45 | –
25 | Cc1cnc(NCc2cn(-c3ccc(Cl)c(C(F)F)c3)nn2)nc1 [Example 154, N-[[1-[4-Chloro-3-(difluoromethyl)phenyl]triazol-4-yl]methyl]-5-methyl-pyrimidin-2-amine] | – | 0.03
26 | Cc1ccnc(OCc2cn(-c3ccc(F)c(C(C)(F)F)c3)nn2)c1 [Example 557, 2-[[1-[3-(1,1-Difluoroethyl)-4-fluoro-phenyl]triazol-4-yl]methoxy]-4-methyl-pyridine] | 0.246 | –
27 | Cc1nc(OCc2cn(-c3ccc(F)c(C(F)(F)F)c3)nn2)ncc1Cl [Example 444, 5-Chloro-2-[[1-[4-fluoro-3-(trifluoromethyl)phenyl]triazol-4-yl]methoxy]-4-methyl-pyrimidine] | 0.013 | –
28 | OCc1ccnc(OCc2cn(-c3ccc(F)c(OC(F)F)c3)nn2)n1 [Example 498, [2-[[1-[3-(Difluoromethoxy)-4-fluoro-phenyl]triazol-4-yl]methoxy]pyrimidin-4-yl]methanol] | 0.019 | –
29 | COC(=O)c1ccnc(OCc2cn(-c3ccc(Cl)c(OC(F)F)c3)nn2)n1 [Example 387, Methyl 2-((1-(4-chloro-3-(difluoromethoxy)phenyl)-1H-1,2,3-triazol-4-yl)methoxy)pyrimidine-4-carboxylate] | – | 0.068
30 | Fc1cnc(OCc2cn(-c3cccc(OC(F)F)c3)nn2)nc1 [Example 324, 2-[[1-[3-(Difluoromethoxy)phenyl]triazol-4-yl]methoxy]-5-fluoro-pyrimidine] | – | 0.494
31 | Fc1ccc(-n2cc(COc3ncc(C4CC4)cn3)nn2)cc1C(F)(F)F [Example 453, 5-Cyclopropyl-2-[[1-[4-fluoro-3-(trifluoromethyl)phenyl]triazol-4-yl]methoxy]pyrimidine] | 0.022 | –
32 | FC(F)Oc1ccc(-n2cc(COc3ncc(Cl)cn3)nn2)cc1 [Example 332, 5-Chloro-2-[[1-[4-(difluoromethoxy)phenyl]triazol-4-yl]methoxy]pyrimidine] | – | 0.2
33 | CC(F)(F)c1cccc(-n2cc(COc3nccc(N)n3)nn2)c1 [Example 316, 2-[[1-[3-(1,1-Difluoroethyl)phenyl]triazol-4-yl]methoxy]pyrimidin-4-amine] | – | 0.183
34 | CC(=O)c1cnc(OCc2cn(-c3ccc(C)c(OC(F)F)c3)nn2)nc1 [Example 522, 1-[2-[[1-[3-(Difluoromethoxy)-4-methyl-phenyl]triazol-4-yl]methoxy]pyrimidin-5-yl]ethanone] | 0.093 | –
35 | Clc1cnc(OCc2cn(-c3ccc4c(c3)CCC4)nn2)nc1 [Example 367, 5-Chloro-2-[(1-indan-5-yltriazol-4-yl)methoxy]pyrimidine] | – | 0.053
36 | Nc1nc(OCc2cn(-c3ccc(Cl)c(OC(F)F)c3)nn2)ncc1F [Example 390, 2-((1-(4-Chloro-3-(difluoromethoxy)phenyl)-1H-1,2,3-triazol-4-yl)methoxy)-5-fluoropyrimidin-4-amine] | – | 0.006
37 | CNc1ccnc(OCc2cn(-c3ccc(F)c(C(C)(F)F)c3)nn2)n1 [Example 581, 2-[[1-[3-(1,1-Difluoroethyl)-4-fluoro-phenyl]triazol-4-yl]methoxy]-N-methyl-pyrimidin-4-amine] | 0.033 | –
38 | FC(F)c1cccc(-n2cc(COc3ncccn3)nn2)c1 [Example 93, 2-[[1-[3-(Difluoromethyl)phenyl]triazol-4-yl]methoxy]pyrimidine] | – | 0.493
39 | Cc1ccnc(OCc2cn(-c3ccc(F)c(Br)c3)nn2)n1 [Example 17, 2-[[1-(3-Bromo-4-fluoro-phenyl)triazol-4-yl]methoxy]-4-methylpyrimidine] | – | 0.01
40 | CC(F)(F)c1cccc(-n2cc(COc3ncc(N4CC(F)C4)cn3)nn2)c1 [Example 321, 2-[[1-[3-(1,1-Difluoroethyl)phenyl]triazol-4-yl]methoxy]-5-(3-fluoroazetidin-1-yl)pyrimidine] | – | 0.104
41 | COc1ccnc(OCc2cn(-c3ccc(Cl)c(C(C)(F)F)c3)nn2)n1 [Example 541, 2-[[1-[4-Chloro-3-(1,1-difluoroethyl)phenyl]triazol-4-yl]methoxy]-4-methoxy-pyrimidine] | 0.012 | –
42 | COCc1ccnc(OCc2cn(-c3ccc(Cl)c(OC(F)F)c3)nn2)n1 [Example 384, 2-[[1-[4-Chloro-3-(difluoromethoxy)phenyl]triazol-4-yl]methoxy]-4-(methoxymethyl)pyrimidine] | – | 0.018
